Source: EP2298778A1, “IMIDAZOTHIAZOLE DERIVATIVE HAVING 4,7-DIAZASPIROÝ2.5¨OCTANE RING STRUCTURE” (Daiichi Sankyo Company, Limited, priority 2008, dated 2009)

experiment: Metabolic stability test (microsomal metabolism test); format: in vitro ADME; conditions: pH 7.4; human-derived liver microsomes, test compound remaining after addition of NADP+ and incubation at 37°C for 30 minutes; read-out: metabolic stability of T/C%
Description: (Test Example 3 Metabolic stability test) 100 µL of 100 mM phosphate buffer solution (pH 7.4) containing 3 µM test compound was added to 100 µL of reaction solution containing 100 mM phosphate buffer solution (pH 7.4), 30 mM glucose 6-phosphate, 10 mM MgCl2·6H2O, 3 units/mL glucose 6-phosphate 1-dehydrogenase, and 0.3 to 1.5 mgP/mL human liver microsomes and the mixture was incubated at 37°C for 20 minutes. Then, 70 µL of 100 mM phosphate buffer solution (pH 7.4) containing 3 mM NADP^+ was added and the mixture was incubated at 37°C for 30 minutes to conduct a microsomal metabolism test. The metabolic stability was calculated according to the following formula: T/C (%) = ((concentration of test compound after addition of NADP)^+and incubation for30minutes)/((concentration of test compound before addition of NADP)^+) × 100. [formula] […]

Remaining at 0.5 h, ≥ 50%:
COc1ccc([C@]2(C)N=C3SC(C(=O)N4[C@H](C)CC[C@H]4C(=O)N4CCNC5(CC5)C4)=C(C(C)C)N3[C@@H]2c2ccc(Cl)c(F)c2)cc1 [Example 72, 7-[(5R)-1-{[(5R,6S)-5-(4-chloro-3-fluorophenyl)-3-isopropyl-6-(4-methoxyphenyl)-6-methyl-5,6-dihydroimidazo[2,1-b][1,3]thiazol-2-yl]carbonyl}-5-methyl-L-prolyl]-4,7-diazaspiro[2.5]octane]
CC(C)C1=C(C(=O)N2[C@H](C)CC[C@H]2C(=O)N2CCNC3(CC3)C2)SC2=N[C@@](C)(c3ccc(C#N)cc3)[C@@H](c3ccc(Cl)c(F)c3)N21 [Example 30, 4-[(5R,6S)-5-(4-chloro-3-fluorophenyl)-2-{[(2S,5R)-2-(4,7-diazaspiro[2.5]oct-7-ylcarbonyl)-5-methylpyrrolidin-1-yl]carbonyl}-3-isopropyl-6-methyl-5,6-dihydroimidazo[2,1-b][1,3]thiazol-6-yl]benzonitrile]
CO[C@@H]1C[C@@H](C(=O)N2CC3(CC3)NC[C@@H]2C)N(C(=O)C2=C(C(C)C)N3C(=N[C@@](C)(c4ccc(Cl)nc4)[C@H]3c3ccc(Cl)c(F)c3)S2)C1 [Example 63, (6S)-7-[(4R)-1-{[(5R,6S)-5-(4-chloro-3-fluorophenyl)-6-(6-chloropyridin-3-yl)-3-isopropyl-6-methyl-5,6-dihydroimidazo[2,1-b][1,3]thiazol-2-yl]carbonyl}-4-methoxy-L-prolyl]-6-methyl-4,7-diazaspiro[2.5]octane]
CC(C)C1=C(C(=O)N2[C@H](C)CC[C@H]2C(=O)N2CCNC3(CC3)C2)SC2=N[C@@](C)(c3ccc(Cl)cc3)[C@@H](c3ccc(Cl)cc3)N21 [Example 1, 7-[(5R)-1-{[(5R,6S)-5,6-bis(4-chlorophenyl)-3-isopropyl-6-methyl-5,6-dihydroimidazo[2,1-b][1,3]thiazol-2-yl]carbonyl}-5-methyl-L-prolyl]-4,7-diazaspiro[2.5]octane]
CCN(C(=O)C1=C(C(C)C)N2C(=N[C@@](C)(c3ccc(Cl)cc3)[C@H]2c2ccc(Cl)cc2)S1)C1(C(=O)N2CCNC3(CC3)C2)CC1 [Example 50, (5R,6S)-5,6-bis(4-chlorophenyl)-N-[1-(4,7-diazaspiro[2.5]oct-7-ylcarbonyl)cyclopropyl]-N-ethyl-3-isopropyl-6-methyl-5,6-dihydroimidazo[2,1-b][1,3] thiazole-2-carboxamide]
CCN(C(=O)C1=C(C(C)C)N2C(=N[C@@](C)(c3ccc(Cl)nc3)[C@H]2c2ccc(Cl)c(F)c2)S1)C1(C(=O)N2CCNC3(CC3)C2)CC1 [Example 53, (5R,6S)-5-(4-chloro-3-fluorophenyl)-6-(6-chloropyridin-3-yl)-N-[1-(4,7-diazaspiro[2.5]oct-7-ylcarbonyl)cyclopropyl]-N-ethyl-3-isopropyl-6-methyl-5,6-dihydroimidazo[2,1-b][1,3]thiazole-2-carboxamide]
CC(C)C1=C(C(=O)N2[C@H](C)CC[C@H]2C(=O)N2CC3(CC3)N(C)C[C@H]2C)SC2=N[C@@](C)(c3ccc(Cl)nc3)[C@@H](c3ccc(Cl)c(F)c3)N21 [Example 24, (6R)-7-[(5R)-1-{[(5R,6S)-5-(4-chloro-3-fluorophenyl)-6-(6-chloropyridin-3-yl)-3-isopropyl-6-methyl-5,6-dihydroimidazo[2,1-b][1,3]thiazol-2-yl]carbonyl}-5-methyl-L-prolyl]-4,6-dimethyl-4,7-diazaspiro[2.5]octane]
CC(C)C1=C(C(=O)N2[C@H](C)CC[C@H]2C(=O)N2CCNC3(CC3)C2)SC2=N[C@@](C)(c3ccc(Cl)nc3)[C@@H](c3ccc(Cl)c(Cl)c3)N21 [Example 31, 7-[(5R)-1-{[(5R,6S)-6-(6-chloropyridin-3-yl)-5-(3,4-dichlorophenyl)-3-isopropyl-6-methyl-5,6-dihydroimidazo[2,1-b][1,3]thiazol-2-yl]carbonyl}-5-methyl-L-prolyl]-4,7-diazaspiro [2.5] octane]
CC[C@@H]1CC[C@@H](C(=O)N2CCN(C)C3(CC3)C2)N1C(=O)C1=C(C(C)C)N2C(=N[C@@](C)(c3ccc(Cl)nc3)[C@H]2c2ccc(Cl)c(F)c2)S1 [Example 33, 7-[(5R)-1-{[(5R,6S)-5-(4-chloro-3-fluorophenyl)-6-(6-chloropyridin-3-yl)-3-isopropyl-6-methyl-5,6-dihydroimidazo[2,1-b][1,3]thiazol-2-yl]carbonyl}-5-ethyl-L-prolyl]-4-methyl-4,7-diazaspiro[2.5]octane]
CC(C)C1=C(C(=O)N2[C@H](C)CC[C@H]2C(=O)N2CC3(CC3)N(C(=O)C(F)(F)F)C[C@@H]2C)SC2=N[C@@](C)(c3ccc(Cl)nc3)[C@@H](c3ccc(Cl)c(F)c3)N21 [Example 60, (6S)-7-[(5R)-1-{[(5R, 6S)-5-(4-chloro-3-fluorophenyl)-6-(6-chloropyridin-3-yl)-3-isopropyl-6-methyl-5,6-dihydroimidazo[2,1-b][1,3]thiazol-2-yl]carbonyl}-5-methyl-L-prolyl]-6-methyl-4-(trifluoroacetyl)-4,7-diazaspiro[2.5]octane]
CC(C)C1=C(C(=O)N2[C@H](C)CC[C@H]2C(=O)N2CCN(C)C3(CC3)C2)SC2=N[C@@](C)(c3ccc(Cl)nc3)[C@@H](c3ccc(Cl)cc3)N21 [Example 9, 7-[(5R)-1-{[(5R,6S)-5-(4-chlorophenyl)-6-(6-chloropyridin-3-yl)-3-isopropyl-6-methyl-5,6-dihydroimidazo[2,1-b][1,3]thiazol-2-yl]carbonyl}-5-methyl-L-prolyl]-4-methyl-4,7-diazaspiro[2.5]octane]
CC[C@@H]1CC[C@@H](C(=O)N2C[C@@H](C)NC3(CC3)C2)N1C(=O)C1=C(C(C)C)N2C(=N[C@@](C)(c3ccc(Cl)nc3)[C@H]2c2ccc(Cl)c(F)c2)S1 [Example 55, (5R)-7-[(5R)-1-{[(5R,6S)-5-(4-chloro-3-fluorophenyl)-6-(6-chloropyridin-3-yl)-3-isopropyl-6-methyl-5,6-dihydroimidazo[2,1-b][1,3]thiazol-2-yl]carbonyl}-5-ethyl-L-prolyl]-5-methyl-4,7-diazaspiro[2.5]octane]
CC(C)C1=C(C(=O)N2[C@H](C)CC[C@H]2C(=O)N2CC3(CC3)NC[C@H]2C)SC2=N[C@@](C)(c3ccc(Cl)nc3)[C@@H](c3ccc(Cl)c(F)c3)N21 [Example 23, (6R)-7-[(5R)-1-{ [(5R,6S)-5-(4-chloro-3-fluorophenyl)-6-(6-chloropyridin-3-yl)-3-isopropyl-6-methyl-5,6-dihydroimidazo[2,1-b][1,3]thiazol-2-yl]carbonyl}-5-methyl-L-prolyl]-6-methyl-4,7-diazaspiro[2.5]octane]
CC(C)C1=C(C(=O)N2[C@@H]3C[C@@H]3C[C@H]2C(=O)N2CC3(CC3)NC[C@@H]2C)SC2=N[C@@](C)(c3ccc(Cl)nc3)[C@@H](c3ccc(Cl)c(F)c3)N21 [Example 70, (6S)-7-{[(1R,3S,5R)-2-{[(5R,6S)-5-(4-chloro-3-fluorophenyl)-6-(6-chloropyridin-3-yl)-3-isopropyl-6-methyl-5,6-dihydroimidazo[2,1-b][1,3]thiazol-2-yl]carbonyl}-2-azabicyclo[3.1.0]hex-3-yl]carbonyl}-6-methyl-4,7-diazaspiro[2.5]octane]
